Measured values as given in publication PMC10301603, “Potent and Selective Benzothiazole-Based Antimitotics with Improved Water Solubility: Design, Synthesis, and Evaluation as Novel Anticancer Agents” (Pharmaceutics, 2023).
Converted amounts (≈) assume the structure as drawn. Read-outs that look alike come from different tables or passages of the source.

How the values were obtained:
tumor cell lines = assay: Cell growth inhibition assay (MTT), summary statements over several cell lines; assay type: cell-based; conditions: read-out: antiproliferative IC50
Protocol: (§1) Cells were plated in 96-well plates (100 µL/well) at the following concentrations: 30,000 cells/mL (HepG2, U87 MG, T98G, C6, LNCaP, PC3, and HT-29 cells) or 15,000 cells/mL (HeLa and MCF-7 cells). Previous experiments were performed to choose the optimal cell concentration (70–80% confluence) and avoid the formation of cell aggregates. Cells were incubated in complete DMEM or RPMI 1640 medium (see above) at 37 °C and 5% CO2 atmosphere for 24 h to allow for cell attachment to the plate. Then, every compound was added (10 µL/well) to a final concentration of 10 µM. Non-treated cells were used as negative controls. The antiproliferative activity of compounds was measured 72 h after the treatments using the MTT reagent (3-[4,5-dimethylthiazol-2-yl]-2,5-diphenyltetrazolium bromide), (MTT Thiazolyl Blue Tetrazolium Bromide, Sigma-Aldrich, St. Louis, MO, USA) dissolved in PBS at 5 mg/mL. Compounds showing antiproliferative effects at 10 µM were selected to determine their IC50 value. For that purpose, compounds were used at different concentrations ranging from 10^−10 to 10^−2 M. Measurements were performed in triplicate, and each experiment was repeated three times. The IC50 value was determined for every compound using Origin software (OriginLab, Washington, USA). To study the sensitivity to MDR efflux pumps of compounds, the IC50 values were determined by following the same procedure but in the presence of verapamil (final concentration of 10 µM).

GL261 cells = assay: Cell growth inhibition assay (MTT); assay type: cell-based, murine; conditions: Mus musculus, GL261, 72 h after drug exposure
Protocol: (§2) The cell lines were obtained from ATTC (Manassas, VA, USA). HeLa (human cervix epithelioid carcinoma), MCF7 (human breast adenocarcinoma), HepG2 (human hepatocellular carcinoma), U87 MG (human glioblastoma), T98G (human glioblastoma), GL261 (murine glioma), LNCaP (human prostate cancer), PC-3 (human prostate cancer), and HEK-293 (human embryonic kidney) were grown in Dulbecco’s modified Eagle’s medium (DMEM, Gibco, Waltham, MA, USA), supplemented with 10% (v/v) heat-inactivated fetal bovine serum (HIFBS, Sigma-Aldrich, St. Louis, MO, USA)), 2 mM L-glutamine, 100 μg/mL streptomycin, and 100 units/mL penicillin (Gibco, Waltham, MA, USA) at 37 °C in saturated humidity atmosphere containing 95% air and 5% CO2. Cell line HT-29 (human colon carcinoma) was grown in Roswell Park Memorial Institute (RPMI) 1640 medium (Gibco, Whaltman, MA, USA) supplemented with 10% HIFBS, 100 μg/mL streptomycin, and 100 units/mL penicillin (Gibco, Whaltman, MA, USA) at 37 °C in humidified 95% air and 5% CO2 atmosphere. MycoAlert kit (Lonza, Norwest, Australia) was used to routinely check the presence of mycoplasma, and only mycoplasma-free cells were employed in the experiments.
as §1

bovine brain tubulin = assay: Tubulin polymerization inhibition (turbidimetry); assay type: biochemical; conditions: for IC50: concentration inhibiting 50% of microtubular protein polymerization in vitro, read-out: TPI IC50; for % TPI: compounds tested at 10 µM, with respect to the negative control
Protocol: Microtubular protein was isolated from calf brain following the modified Shelanski method, based on temperature-dependent assembly/disassembly of tubulin [45]. The protein was stored at −80 °C, and its concentration was determined using the Bradford method before each use. Tubulin polymerization, which occurs when heating a buffered tubulin sample from 4 °C to 37 °C, is accompanied by an increase in the absorbance (at 450 nm) of the sample that was monitored by a Helios α spectrophotometer. […] Then, the temperature was adjusted to 4 °C, and the temperature being shifted to 37 °C allowed for the assembly process of tubulin. The turbidity caused by tubulin polymerization was measured by the increased absorbance at 450 nm. The increase in absorbance obtained for the control sample (without the ligand), which we considered to be 100% tubulin polymerization (0% inhibition), compared with the increase in absorbance determined for the sample containing ligands yielded the degree of tubulin polymerization inhibition (TPI), which is expressed as a percentage value. For the compounds displaying TPI values over 50% at 10 µM, the IC50 value for TPI was calculated. Measurements were performed in triplicate in two independent experiments using microtubular protein from different preparations.

HEK-293 cells = assay: Cell growth inhibition assay (MTT), non-tumorigenic cells; assay type: cell-based, human; conditions: Homo sapiens, HEK293, 72 h after drug exposure, non-tumorigenic cell line
Protocol: as §2, §1

HT-29 cells [1] = assay: Cell growth inhibition (MTT) in the presence of 10 µM verapamil (sensitivity to MDR efflux pumps); assay type: cell-based, human; conditions: 10 µM verapamil (P-gp/MDR1 inhibitor)
Protocol: as §1

[2] = Aqueous solubility, shake-flask method; assay type: physicochemical; conditions: pH 7.0 buffer, thermodynamic from solid, shaking flask, buffered media at pH 7.0, mean of three
Protocol: The aqueous solubility of compounds was measured in a Helios Alfa Spectrophotometer. Calibration lines at the maximum wavelength of absorbance were determined for each compound. Then, following the shake-flask method, a suspension of 5 mg of each compound in 500 µL in pH 7.0 buffer was stirred for 72 h at room temperature. The mixture was then filtrated over a […] filter to remove the insoluble fraction. The concentration of the compound in the resulting saturated solution was determined via UV absorbance measurement and interpolation in the calibration line. The aqueous solubility values are given as the average of three independent measurements.

U87MG cells = assay: Cell growth inhibition assay (MTT); assay type: cell-based, human; conditions: Homo sapiens, U-87 MG; MTT, 72 h after drug exposure
Protocol: as §2, §1

HepG2 cells = assay: Cell growth inhibition assay (MTT); assay type: cell-based, human; conditions: Homo sapiens, HepG2, 72 h after drug exposure
Protocol: as §2, §1

PC-3 cells = assay: Cell growth inhibition assay (MTT); assay type: cell-based, human; conditions: Homo sapiens, PC-3, 72 h after drug exposure
Protocol: as §2, §1

T98G cells = assay: Cell growth inhibition assay (MTT); assay type: cell-based, human; conditions: Homo sapiens, T98G, 72 h after drug exposure
Protocol: as §2, §1

HT-29 cells [3] = assay: Cell growth inhibition assay (MTT); assay type: cell-based, human; conditions: Homo sapiens, HT-29, 72 h after drug exposure
Protocol: as §2, §1

HeLa cells [4] = assay: Cell growth inhibition assay (MTT); assay type: cell-based, human; conditions: Homo sapiens, HeLa, 72 h after drug exposure
Protocol: as §2, §1

MCF7 cells = assay: Cell growth inhibition assay (MTT); assay type: cell-based, human; conditions: Homo sapiens, MCF7; MTT, 72 h after drug exposure
Protocol: as §2, §1

LNCaP cells = assay: Cell growth inhibition assay (MTT); assay type: cell-based, human; conditions: Homo sapiens, LNCaP, 72 h after drug exposure
Protocol: as §2, §1

HeLa cells [5] = test system: HeLa cells; parameters: method as in PMID 25970265; conditions: read-out: IC50 cell proliferation of HeLa cells; cited from earlier work
[6] = the rest of the tumor cell lines (other than HeLa, HepG2, MCF7, U87MG)

Row | SMILES | IC50 (tumor cell lines; HeLa, HepG2, MCF7, and U87MG) | IC50 (tumor cell lines; [6]) | IC50 (GL261 cells) | IC50 (bovine brain tubulin) | IC50 (HEK-293 cells) | IC50 (HT-29 cells [1]) | solubility at 72 h ([2]; pH 7, aqueous buffer) | IC50 (U87MG cells) | IC50 (HepG2 cells) | IC50 (PC-3 cells) | IC50 (T98G cells) | IC50 (HT-29 cells [3]) | IC50 (HeLa cells [4]) | IC50 (MCF7 cells) | IC50 (LNCaP cells) | % TPI (bovine brain tubulin) | further results
1 | COc1ccc2nc(NCc3ccccn3)sc2c1 [Compound 1, 6-methoxy-N-(pyridin-2-ylmethyl)benzo[d]thiazol-2-amine] | ~1000 nM | 2000 to 3000 nM | 2170 nM | > 10000 nM | > 10000 nM | 3470 nM | 48 µg/mL (≈ 177 µM) | 1610 nM | 2400 nM | 2110 nM | 2400 nM | 3510 nM | 1780 nM | 1530 nM | 1520 nM | – | –
2 | COc1ccc2nc(NCc3cccnc3)sc2c1 [Compound 2, 6-methoxy-N-(pyridin-3-ylmethyl)benzo[d]thiazol-2-amine] | ~1000 nM | 2000 to 3000 nM | 1910 nM | > 10000 nM | > 10000 nM | 2150 nM | 57 µg/mL (≈ 210 µM) | 1320 nM | 1190 nM | 1550 nM | 2110 nM | 2230 nM | 1270 nM | 1170 nM | 1430 nM | – | –
3 | COc1ccc2nc(NCc3ccncc3)sc2c1 [Compound 3, 6-methoxy-N-(pyridin-4-ylmethyl)benzo[d]thiazol-2-amine] | ~1000 nM | 2000 to 3000 nM | 2030 nM | > 10000 nM | > 10000 nM | 3270 nM | 55 µg/mL (≈ 203 µM) | 1510 nM | 1230 nM | 3310 nM | 2270 nM | 3390 nM | 1450 nM | 1740 nM | 2010 nM | – | –
4 | CCNC(=O)N(Cc1ccccn1)c1nc2ccc(OC)cc2s1 [Compound 7, 3-ethyl-1-(6-methoxybenzo[d]thiazol-2-yl)-1-(pyridin-2-ylmethyl)urea] | – | – | 96 nM | 4200 nM | 8810 nM | 315 nM | 98 µg/mL (≈ 286 µM) | 62 nM | 198 nM | 330 nM | 125 nM | 303 nM | 275 nM | 251 nM | 247 nM | 87% | IC50 (tumor cell lines; the rest of the cell lines (other than glioblastoma U87MG and GL261)): 100 to 300 nM
5 | COc1ccc2nc(N(C=O)Cc3ccccn3)sc2c1 [Compound 13, N-(6-methoxybenzo[d]thiazol-2-yl)-N-(pyridin-2-ylmethyl)formamide] | – | – | 195 nM | 5000 nM | 9310 nM | 540 nM | 90 µg/mL (≈ 301 µM) | 254 nM | 321 nM | 423 nM | 327 nM | 557 nM | 331 nM | 221 nM | 315 nM | 80% | IC50 (tumor cell lines; Homo sapiens, MCF7, glioblastoma and MCF7 cells): ~200 nM; IC50 (tumor cell lines; all the cell lines): 300 to 500 nM
6 | COc1ccc2nc(N(Cc3ccc4ccccc4c3)C(C)=O)sc2c1 [Compound 24, N-(6-methoxybenzo[d]thiazol-2-yl)-N-(naphthalen-2-ylmethyl)acetamide] | – | – | > 10000 nM | > 10000 nM | > 10000 nM | > 10000 nM | < 9 µg/mL | > 10000 nM | > 10000 nM | > 10000 nM | > 10000 nM | > 10000 nM | > 10000 nM | > 10000 nM | > 10000 nM | 0% | Tubulin polymerization inhibition (in words) (bovine brain tubulin; 10 µM): not able to inhibit tubulin polymerization
7 | Cc1cc2nc(/C=C/c3cccnc3)sc2cc1C [MI181, reference compound] | – | – | – | 4600 nM | – | – | – | – | – | – | – | – | – | – | – | – | IC50 (HeLa cells [5]): 17 nM; solubility at 72 h ([2]; aqueous buffer): 5.6 µg/mL (≈ 21 µM)
8 | Cn1nnc2c(C(N)=O)ncn2c1=O [TMZ, temozolomide, reference compound] | – | – | 179000 nM | – | > 10000 nM | > 10000 nM | – | 135000 nM | > 10000 nM | > 10000 nM | 241000 nM | > 10000 nM | > 10000 nM | > 10000 nM | > 10000 nM | – | IC50 (tumor cell lines; glioblastoma cell lines): > 100000 nM
